# “Also recorded” adds a separate entry of the source. Where a SMILES comes first, the peptide text is derived from it. Bridges are numbered along the chain shown (N, C = ends). Where no end group is shown, it is not given here.
# B1: MPL F3A R8A (L3): MPL mutant weakening the affinity of the meditope portion, linker L3 (protein)
# chain: SCQADLSTARLKCGGGGSEVTIKVNLIFADGKIQTAEFKGTFEEATAEAYRYAALLAKVNGEYTADLEDGGNHMNIKFAG
# Legend:
# [1] = system: meditope-enabled trastuzumab (TM); assay: SPR, MPL linker variants flowed over immobilized TM; conditions: 1:1 langmuir binding model
# Description: Protein was purified by affinity and size exclusion chromatography. […] Kinetic information was calculated using Biaevaluation software using a 1:1 langmuir binding model.
# SKBR3 cells = assay: FACS, antibody and meditope binding to HER2 over-expressing cells; format: cell-based
# Description: Unbound antibody was washed twice and analyzed by flow cytometry.
# cetuximab [2] = assay: SPR (Biacore T100), variant meditopes over immobilized cetuximab IgG or cetuximab Fab; format: binding; conditions: in words
# Description: The final volume after dialysis was carefully measured and absorbance measurements were taken to estimate the concentration (typically 1-10 mM). These stock solutions were used to make dilutions into HBS-EP buffer (10 mM Hepes pH 7.4, 150 mM NaCl, 3 mM EDTA and 0.05% v/v surfactant P20) for SPR measurements. […] Ligands were immobilized at low levels suitable for kinetic data. Typical kinetics SPR experiments were carried out at a flow rate of 30 μL/min using HBS-EP as both running and regeneration buffer. Kinetic parameters were calculated using the Biacore T100 evaluation software version 2.0.1.
# Each chip was first characterized using a soluble fragment of the entire extracellular domain of EGFR (residues 1-621).
# [3] = system: meditope-enabled M5A (M5A 8M); assay: SPR, meditope variants with meditope-enabled M5A; format: binding; conditions: FIG. 58
# cetuximab [4] = assay: SPR binding affinity as a function of buffer pH; conditions: pH=4.0 to pH=8.0
# Description: FIG. 27 is a graph showing surface plasmon resonance (SPR) studies.
# cetuximab Fab = assay: SPR, meditopes over cetuximab Fab immobilized on CM5 chip; format: binding; conditions: relative to WT cQFD
# Description: Affinity analysis by SPR was performed as previously described (Donaldson et al., 2009; Li et al., 2005, supra). […] SEC was performed using a Superdex 200 10/300 column (GE Healthcare). The proteins were mixed, incubated at room temperature for 20 min and applied to the column at 4° C.
# The binding kinetics were also measured (FIG. 3).
# The point mutation and wild type cQFD meditopes were generated as C-terminal fusions to SMT3 and cleaved with Ulp1 before the analysis.
# sEGFRdIII = molecular target: T1, sEGFRdIII (Homo sapiens, UniProt P00533); assay: FRET titration of labeled cetuximab Fab with labeled sEGFRdIII; format: binding; conditions: in the presence of the cQFD meditope (66 μM)
# T1 construct: soluble epidermal growth factor receptor domain III (sEGFRdIII) were expressed in Sf9 cells; made in house; host or cells: Sf9 cells
# MDA-MB-468 cells [5] = assay: MTT assay; format: cell-based; conditions: for cell growth: 48-hour incubation, 0.1 μM cetuximab, 0.01, 0.1 and 1 μM meditope or meditope-Fc
# Description: 4000 MDA-MB-468 cells were placed in each well of a 96 well plate in 80 μl of medium.
# The assay compared the enhancement of cetuximab-mediated inhibition of antigen-expressing tumor cell growth by meditope-Fc and by M425 (a mouse anti-EGFR antibody). 4000 MDA-MB-468 cells were placed in each well of a 96 well plate in 80 μl of medium. […] After a 48-hour incubation period, 10 μl MTT reagent was added and the mixture allowed to incubate for an additional 4 hours. The culture supernatant was removed, 100 μl of MTT crystal dissolving reagent added, and the plate read at 630 nm.
# MDA MB-468 cells = assay: FACS, cetuximab binding to EGFR-expressing cells in the presence of meditope; format: cell-based; conditions: meditope concentrations greater than 60 μM
# Description: Labeled MOPS-21 was used as an isotype control. Cell fluorescence was determined using a FACS Calibur instrument (BD Biosciences).
# MDA-MB-468 cells [6] = assay: FACS, meditope binding to cetuximab pre-treated EGFR-expressing cells; format: cell-based
# Description: In another study, the meditope-Fc fusion protein was labeled with Alexa488 as described above. […] Unbound antibody was washed and the cells were incubated with the meditope-Fc (600 nM, 180 nM, or 60 nM) for 30 minutes.
# T1 sequence (P00533 335-538 limits assumed): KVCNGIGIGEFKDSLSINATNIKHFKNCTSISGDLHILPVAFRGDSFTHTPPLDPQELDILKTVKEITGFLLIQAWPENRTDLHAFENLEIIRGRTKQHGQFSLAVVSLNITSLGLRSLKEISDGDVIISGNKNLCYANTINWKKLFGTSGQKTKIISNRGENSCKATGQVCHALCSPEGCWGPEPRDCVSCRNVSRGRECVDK
molecule,measurement,setting,value
MPL (L3): meditope SCQFDLSTRRLKC fused to Protein L moiety through linker GGGGS,"off-rate, kd",[1],6.441e-05 s⁻¹
same,"on-rate, ka",[1],383200 M⁻¹ s⁻¹
same,meditope binding to antibody pre-bound cells,SKBR3 cells,tight binding affinity
"SQFDLSTRRLKS [Meditope 55, No linkage; linear peptide]",affinity compared to cQFD,cetuximab [2],reduced affinity
CC(C)C[C@@H]1NC(=O)[C@H](CCCNC(=N)N)NC(=O)[C@H](CCCNC(=N)N)NC(=O)[C@H]([C@@H](C)O)NC(=O)[C@H](CO)NC(=O)[C@H](CC(C)C)NC(=O)[C@H](CC(=O)O)NC(=O)[C@H](Cc2ccccc2)NC(=O)[C@H](CCC(N)=O)NC(=O)[C@@H](N)CSSC[C@@H](C(=O)O)NC(=O)[C@H](CCCCN)NC1=O [meditope],"off-rate, kd",[1],0.01641 s⁻¹
same,"on-rate, ka",[1],13250 M⁻¹ s⁻¹
"CC(C)C[C@@H]1NC(=O)[C@H](CCCNC(=N)N)NC(=O)[C@H](CCCNC(=N)N)NC(=O)[C@H]([C@@H](C)O)NC(=O)[C@H](CO)NC(=O)[C@H](C(c2ccccc2)c2ccccc2)NC(=O)[C@H](CC(=O)O)NC(=O)[C@H](Cc2ccccc2)NC(=O)[C@H](CCC(N)=O)NC(=O)[C@@H](N)CSSC[C@@H](C(=O)O)NC(=O)[C@H](CCCCN)NC1=O [Meditope 18, C-QFDXSTRRLK-C]",binding to meditope-enabled antibody,[3],confirming binding
"C-QYDLSTRRLK-C (CQYDLSTRRLKC; disulfide 1-12) [Meditope 16, Y = tyrosine; Disulfide 1-Cys:12-Cys]",pH dependence of affinity,cetuximab [4],marked decrease in affinity
CC(C)C[C@@H]1NC(=O)[C@H](C)NC(=O)[C@H](CCCNC(=N)N)NC(=O)[C@H](CO)NC(=O)[C@H](CO)NC(=O)[C@H](CC(C)C)NC(=O)[C@H](CC(N)=O)NC(=O)[C@H](Cc2ccc(O)cc2)NC(=O)[C@H](CCC(N)=O)NC(=O)[C@@H](N)CSSC[C@@H](C(=O)O)NC(=O)[C@H](CCCCN)NC1=O [Meditope 2],affinity compared to cQFD,cetuximab [2],reduced
same,pH dependence of affinity,cetuximab [4],flat pH dependence
same,binding to meditope-enabled antibody,[3],confirming binding
"CC(C)C[C@@H]1NC(=O)[C@H](CCCNC(=N)N)NC(=O)[C@H](CCCNC(=N)N)NC(=O)[C@H]([C@@H](C)O)NC(=O)[C@H](CO)NC(=O)[C@H](CC(C)C)NC(=O)[C@H](CC(=O)O)NC(=O)[C@H](C(c2ccccc2)c2ccccc2)NC(=O)[C@H](CCC(N)=O)NC(=O)[C@@H](N)CSSC[C@@H](C(=O)O)NC(=O)[C@H](CCCCN)NC1=O [Meditope 17, C-QXDLSTRRLK-C]",binding to meditope-enabled antibody,[3],confirming binding
CC(C)C[C@@H]1NC(=O)[C@H](CC(=O)O)NC(=O)[C@H](Cc2ccccc2)NC(=O)[C@H](CCC(N)=O)NC(=O)[C@@H](N)CSSC[C@@H](C(=O)O)NC(=O)[C@H](CCCCN)NC(=O)[C@H](C)NC(=O)[C@H](CCCNC(=N)N)NC(=O)[C@H](CCCNC(=N)N)NC(=O)[C@H]([C@@H](C)O)NC(=O)[C@H](CO)NC1=O [Meditope 29] (H-CQFDLSTRRAKC-OH; disulfide 1-12),ΔΔG,cetuximab Fab,0.63 kcal/mol
CC(C)C[C@@H]1NC(=O)[C@H](CCCNC(=N)N)NC(=O)[C@H](CCCNC(=N)N)NC(=O)[C@H]([C@@H](C)O)NC(=O)[C@H](CO)NC(=O)[C@H](CC(C)C)NC(=O)[C@H](CC(=O)O)NC(=O)[C@H](Cc2ccccc2)NC(=O)[C@H](CCC(N)=O)NC(=O)[C@@H](N)CSSC[C@@H](C(=O)O)NC(=O)[C@H](CCCCN)NC1=O [Meditope 1],change in the binding constant of the Fab-sEGFRdIII interaction,sEGFRdIII,no substantial change
same,cell growth,MDA-MB-468 cells [5],"Neither addition of monovalent meditope (alone or with cetuximab), or meditope-Fc alone altered cell growth significantly"
same,pH dependence of affinity,cetuximab [4],slightly greater at higher pHs
same,changes in cetuximab binding to the cells,MDA MB-468 cells,no significant changes
AcC-QFDLSTRRLR-CGGGSK [Meditope 31],binding to meditope-enabled antibody,[3],confirming binding
meditope-Fc: cQFD fused to the N-terminus of an IgG Fc region through a 17 amino acid glycine/serine linker,enhancement of cell-killing capacity of cetuximab,"MDA-MB-468 cells [5]; 0.1 μM cetuximab with 0.2, 0.4 or 0.8 μM agent, 48 hours",enhanced the cell-killing capacity of cetuximab to a similar degree
same,cell growth,MDA-MB-468 cells [5],inhibited cell growth
same,binding to cells pre-treated with cetuximab,MDA-MB-468 cells [6],"higher affinity compared to the meditope monomer; also recorded: bound to the cells incubated with cetuximab, but not to cells incubated with M425"
same,meditope binding to antibody pre-bound cells,SKBR3 cells,"binds to the meditope-enabled trastuzumab, but not to wild-type trastuzumab"
"Q-FDLSTRRLK-X [Meditope 42, X = 7-aminoheptanoic acid; Lactam 1-Gln: 11-X]",affinity compared to cQFD,cetuximab [2],decreased
B1,"off-rate, kd",[1],0.02239 s⁻¹
same,"on-rate, ka",[1],81350 M⁻¹ s⁻¹
same,Kd,"[1]; read-out: Dissociation constant, KD",275 nM

# From patent US9428553B2, “Meditopes and meditope-binding antibodies and uses thereof” (City of Hope, priority 2012, dated 2016)
